{"source": "patent US20100240746A1", "about": "“STEREOISOMERS OF TRICYCLODECAN-9-YL-XANTHOGENATE” (LUMAVITA AG, priority 2007, published 2010)", "key": {"[1]": {"tested_on": "Calu-6 cells", "assay": "Cytotoxicity assay in Calu-6 cells (crystal violet)", "type": "cell-based", "conditions": "48 hr", "protocol": "(§1) Calu-6 cells and RITA cells were grown in DMEM cell culture medium containing 10% fetal calf serum in CO2 incubator under 5% CO2 at 37° C. with 100% humidity.\nFor cytotoxicity assay, Calu-6 cells were seeded in 96 well plates at a density of 3×10^6 cells per plate in the DMEM cell culture medium. The plates were incubated at 37° C. in the presence of 5% CO2 for 24 hr. The DMEM cell culture medium in the plates was exchanged with fresh DMEM cell culture medium containing test compounds at a series of concentrations. The plates were incubated at 37° C. in the presence of 5% CO2 for 48 hr. The plates were then washed with PBS, fixed with 3% formaldehyde solution containing 0.9% NaCl for 1 min, washed by water for 10 sec, and dried overnight. For detection, the plates were stained with crystal violet solution for 5 min at room temperature, washed 5 times with water, and dried at room temperature overnight. After adding ethanol/acetic acid (99:1, v/v, […]) to each well, the plates were measured at 595 nm using an ELISA reader. A dose response curve was obtained for each compound tested by plotting the mean values of the optical densities against compound concentration."}, "[2]": {"tested_on": "bovine papilloma virus type I (BPV-1)-transformed HEF (HEF-BPV)", "assay": "BPV-infected hamster embryo fibroblasts (HEF) cell proliferation assay", "type": "cell-based", "conditions": "72 hr incubation", "protocol": "Briefly, hamster embryo fibroblasts and bovine papilloma virus type I (BPV-1)-transformed HEF (HEF-BPV) were grown in Eagle's basal medium. […] and HEF cells were seeded in 96-well plates at a density of 0.5×10^6 cells per plate in DMEM cell culture medium containing 10% fetal calf serum at pH 6.8. The plates were then incubated in the presence of 5% CO2 in 100% humidity at 37° C. After 6 hr, the cell culture medium in the plates was exchanged with fresh DMEM cell culture medium containing test compounds at a series of concentrations. The plates were incubated at 37° C. for additional 72 hr. Cells in the plates were then washed with PBS, fixed with 3% formaldehyde solution containing 0.9% NaCl for 1 min, washed by water for 10 sec, and dried overnight. For detection, the plates were stained with crystal violet solution for 5 min at room temperature, washed 5 times with water, and dried at room temperature overnight. After adding ethanol/acetic acid (99:1, v/v, […]) to each well, the plates were measured at 595 nm using an ELISA reader."}, "[3]": {"molecular_target": "T1, phosphatidylcholine-specific phospholipase C (PC-PLC) (Bacillus cereus, UniProt P09598)", "T1 construct": "purchased Invitrogen", "T1 sequence (P09598 39-283 limits assumed)": "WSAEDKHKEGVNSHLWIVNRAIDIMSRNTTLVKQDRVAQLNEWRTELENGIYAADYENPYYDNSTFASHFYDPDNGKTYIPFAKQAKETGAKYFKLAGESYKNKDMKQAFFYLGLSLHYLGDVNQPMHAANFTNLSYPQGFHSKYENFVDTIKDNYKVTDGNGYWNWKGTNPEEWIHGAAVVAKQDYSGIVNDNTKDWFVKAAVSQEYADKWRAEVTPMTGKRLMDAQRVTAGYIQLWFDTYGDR", "assay": "Amplex Red phosphatidylcholine-specific phospholipase C (PC-PLC) inhibition assay", "type": "biochemical, B. cereus", "conditions": "30 min at 37° C., triplicate; read-out: IC50 (converted)", "protocol": "The inhibitory activities of optically active potassium salts of (+)- and (−)-O-exo/C-exo-tricyclo [5.2.1.0^2,6]-dec-9-yl-xanthic acid 1A ((+)- and (−)-enantiomers 1A) against phosphatidylcholine-specific phospholipase C were evaluated, together with D609 and potassium salt of racemic O-exo/C-exo xanthic acid 1A (racemic 1A), using Amplex Red phosphatidylcholine-specific phospholipase C(PC-PLC) assay kit, which was obtained from Invitrogen (Calsbad, Calif.). D609 was obtained from Sigma Aldrich.\nAn Amplex Red stock solution (˜20 mM), a working reaction buffer, and a horseradish peroxidase stock solution (200 U/mL), a H2O2 working solution (20 mM), a choline oxidate stock solution (20 U/mL), an alkaline phosphatase stock solution (400 U/mL), and a B. cereus PC-PLC stock solution (10 U/mL) were prepared according to the instruction of the assay kit. The stock solution (100 mg/mL) for each test compound was also prepared by dissolving the compound in water 2 hr prior to the start of the experiment.\nA working Amplex Red/HRP/lecithin solution was prepared by adding 200 μL of Amplex Red reagent stock solution, 100 μL of HRP stock solution, 200 μL of alkaline phosphatase stock solution, 100 μL of choline oxidase stock solution, and 78 μL of the lecithin solution to […] of the working reaction buffer. PC-PLC solution (0.2 U/mL) was prepared by diluting the PC-PLC stock solution with the working reaction buffer to the desired concentration.\nThe test compound (25 μL) at a serious of concentrations was pipetted into a 96 well plate. For uninhibited PC-PLC controls and non-PC-PLC controls, 25 μL of water was added. After the addition of 50 μL of the Amplex Red/HRP/lecithin working solution, the reaction was initiated by adding 25 μL of PC-PLC solution to each well. To the non-PC-PLC controls, 25 μL of water was added instead of PC-PLC solution. The experiment was performed in triplicate. The reactions were protected from light. After incubated for 30 min at 37° C., the reactions were measured with a fluorescence microplate reader using excitation at 550 nm and emission detection at 590 nm. The fluorescent data obtained were corrected for background fluorescence by subtracting the values obtained from the non-PC-PLC controls."}, "[4]": {"tested_on": "herpes simplex virus type 2", "assay": "HSV-2 inhibition in Calu-6 cells, plaque titration on RITA cells", "type": "cell-based", "conditions": "Human alphaherpesvirus 2, Calu-6; 48 hr, 50 plaque forming units per well", "protocol": "as §1\nFor HSV-2 inhibition, Calu-6 cells were seeded in 96 well plates at a density of 3×10^6 cells per plate in the DMEM cell culture medium. The plates were incubated at 37° C. in the presence of 5% CO2 for 24 hr. The DMEM cell culture medium in the plates was removed and the cells were infected with Herpes simplex virus type-2 at 50 plaque forming units per well. After incubation at 37° C. for 60 min, test compounds in DMEM cell culture medium at a series of concentrations were added. The plates were incubated at 37° C. in the presence of 5% CO2 for 48 hr. The plates were frozen at −20° C. prior to further analysis. After thawing at room temperature, supernatants containing infectious virus particles were prepared by centrifuging the supernatant from each well at 18,000 g at 4° C. for 5 min. The supernatant was further diluted before assay.\nRITA cells were seeded in 24 well Linbra plates at a density of 4×10^6 cells per plate in 2 mL of DMEM cell culture medium. The plates were incubated at 37° C. in the presence of 5% CO2 for 24 hr. […] The number of plaques was determined macroscopically. […] The therapeutic index was also calculated for each compound by dividing LD50 with IC50."}}, "data": [{"smiles": "S=C(S)O[C@@H]1C[C@@H]2C[C@H]1[C@H]1CCC[C@@H]21", "note": "(racemic) [Racemic 1A, racemic O-exo/C-exo xanthic acid 1A, reference compound]", "values": [{"measurement": "LD50", "setting": "[1]", "result": "96.93 ± 7.12", "unit": "µg/mL"}, {"measurement": "IC50", "setting": "[2]", "result": "14.55 ± 0.07", "unit": "µg/mL"}, {"measurement": "IC50", "setting": "[3]", "result": 44, "unit": "µM"}, {"measurement": "IC50", "setting": "[4]", "result": "17.2 ± 5.95", "unit": "µg/mL"}]}]}
